In series [1] the test system is chloroquine-sensitive P. falciparum (NF54). Kind of series: Antimalarial screening, [3H]hypoxanthine incorporation. The class given is cell-based, Plasmodium falciparum. Here is the method: Activity was determined by measuring the incorporation of [^3H]hypoxanthine, by the methods of Desjardins and Milhouse, with the following modifications, see […].; Haynes, […]. Antimicrob. Agents Chemother., 16: 710 (1979); Milhous, W. K.; Weatherly, […].; Antimicrob. Agents Chemother., 27: 525 (1985). […] Calbiochem #391338), 27 mM NaHCO3 (Gibco BRL # 11810-025), and 10% heat-inactivated human type O+serum (Interstate Blood Bank, Inc.), under 3% O2, 4% CO2, and 93% N2-Parasitemia was maintained at 0.05-3% and doubling time at approximately 15 hours by twice weekly change of medium and replenishment with fresh erythrocytes. […] Sigma-Aldrich #27,043-1). DMSO solutions were diluted 500-fold in medium, serially diluted in 0.2% DMSO in medium (to maintain constant solvent concentration), then 100 μL aliquots were pipetted into microtiter plate wells (Costar3595). […] Cells were harvested (Brandel MB-48R) onto GF-C glass filters (Brandel). The filters were washed five times with 3 mL water per sample spot, dried under a heat lamp, and counted (Beckman Model LS-6500) in scintillation cocktail (ICN Cytoscint). Decays per minute (dpm) values were downloaded and analyzed (Power Macintosh 7200/90; Microsoft Excel 5.0), to yield the mean and standard deviation at each drug concentration.

For series [2] the following is noted: in vivo; cited from earlier work.
Series [3] has as its system P. berghei. Conditions: P. berghei-infected mice; cited from earlier work.
The conditions of series [4]: rat liver microsomes; cited from earlier work. Background: Microsomes from liver hold many membrane-bound enzymes, among them those of drug oxidation.
The subject of series [5] is murine keratinocyte cell line PE. Kind of series: Growth inhibition of PE cells, MTT assay. The class given is cell-based. The note with it: 96 hours. Here is the method:
To determine the inhibitory effect of the compositions of the present invention on cell proliferation, screening assays were performed on a murine keratinocyte cell line PE. Cell line PE was chosen for its particular sensitivity to the induction of omithine decarboxylase (ODC) activity by the extensively characterized tumor promoter TPA. Cell line PE was derived from a papilloma-induced in female SENCAR mice by a standard skin initiation/promotion protocol, see Yuspa, S. H., et al., Carcinogenesis, 7:949-958 (1986). PE cell culture medium consisted of Eagle's minimal essential medium without calcium chloride (Whittaker Bioproducts, Walkersville, Mass.) supplemented with 8% chelexed fetal calf serum and 1% antibiotic-antimycotic (Gibco BRL) and the addition of CaCI2 to 0.05 mM Ca^++
MTT [3-(4,5-dimethylthiazol-2-yl)-2,5-diphenyltetraxolium bromide] was purchased from Sigma Chemical Co. (St. Louis, Mo.), and TPA was supplied by L.C. Services (Woburn, Mass.). L-[^14C]omithine ([…]) was from Amersham/Searle Corp. (Arlington Heights, Ill.). Chemical solvents used in all assays of biological activity were of the highest grade commercially available.
Growth curves, shown in FIG. 5, for PE cells treated with calcitriol and the C-10 carbon-substituted dimers VII-f, VII-g and VII-h generated by assay for the reduction of the tetrazolium-based compound MTT, see Charmichael, et al., Cancer Res., 47:936-942 (1987). A mitochondrial dehydrogenase reduces MTT to a blue formazan product with an absorbance maximum of 505 nm in DMSO; the number of viable cells can thus be determined spectrophotometrically. PE cells were seeded at a density of 5,000 cells/well in 50 IL of medium into 96-well microtiter plates. Twelve hours later, the medium was removed, and cells were treated with 100 μL of fresh medium into which the appropriate amount of calcitriol or analog dissolved in dimethyl sulfoxide (DMSO) had been added, with the concentration of DMSO held constant at 0.1 %. […] At 24-hour intervals following the initial treatment of the cells with compounds, 0.1 mg (50 μL of a 2 mg/mL solution) of MTT was added to each well. After 4 hours, the MTT was removed and DMSO added to dissolve the blue formazan dye. Using a microtiter plate reader, the A505 was then determined and cell number calculated from blank-subtracted absorbance values.
For orientation: Formazan colour is commonly taken as a measure of viable cells.

Setting [6] is: chloroquine-sensitive P. falciparum (NF54), read-out: IC50.
The mark [7] stands for this setting: Plasmodium falciparum, NF54, chloroquine-sensitive P. falciparum (NF54), read-out: IC50.

Like-named read-outs stand apart in the source and are kept apart here.

For orientation: IC50 means the concentration that inhibits the measured activity by half. For the compound 10-(Benzhydryl)anhydroartemisinin [I-5], the IC50 in series [1] (setting [6]) worked out at 4.5 nM.
The same measure, in the same setting: in the case of `CC1=C(c2nc3ccccc3s2)OC2OC3(C)CCC4C(C)CCC1C24OO3` (stereo not drawn) [Benzo-4, 10-(2′-Benzothiazolyl)anhydroartemisinin] it was 7.8 nM.
The same measure, in the same setting: for `CC1=C(C=Cc2ccccc2)OC2OC3(C)CCC4C(C)CCC1C24OO3` (stereo not drawn) [E-VII-c, 10-(Styryl)anhydroartemisinin] the value was 16 nM; for `CC1=C(C=Cc2ccc([N+](=O)[O-])cc2)OC2OC3(C)CCC4C(C)CCC1C24OO3` (stereo not drawn) [E-VII-d, 10-(p-Nitrostyryl)anhydroartemisinin], 11 nM.
Regarding `CC1=C(C(=O)c2ccccc2)O[C@@H]2O[C@@]3(C)CC[C@H]4[C@H](C)CC[C@@H]1[C@@]24OO3` [I-4, 10-Benzoylanhydroartemisinin], in series [1] (setting [7]), the IC50 is 4.6 nM.
As for `C[C@H]1[C@@H](O)O[C@@H]2O[C@@]3(C)CC[C@H]4[C@H](C)CC[C@@H]1[C@@]24OO3` [II-1, dihydroartemisinin], in series [2], the half-life in plasma entry is given as “less than two hours”.
Turning to `CC1=CO[C@@H]2O[C@]3(C)CC[C@H]4[C@H](C)CC[C@@H]1[C@@]24OO3` [III], the activity in words entry in series [3] is “inactive”.
Turning to `CC1=C(c2nccs2)O[C@@H]2O[C@@]3(C)CC[C@H]4[C@H](C)CC[C@@H]1[C@@]24OO3` [Ib, 10-(2′-Thiazolyl)anhydroartemisinin], the IC50 in series [1] (Plasmodium falciparum, NF54) was determined as 14 nM.
As usually defined, the melting point is the temperature of the solid-liquid transition. Turning to `CC1=C(C=O)O[C@@H]2O[C@@]3(C)CC[C@H]4[C@H](C)CC[C@@H]1[C@@]24OO3` [Ie, 10-Formylanhydroartemisinin], the melting point fell in the range of 115 to 117 °C. Further, the IC50 in series [1] (setting [7]) was determined as 37 nM.
On to `C=CC1=C(C)C2CCC(C)C3CCC4(C)OOC23C(O1)O4` (stereo not drawn) [VII-a, 10-Vinylanhydroartemisinin], for which the IC50 in series [1] (setting [6]) came out at 28 nM.
Consider `CC1=C(C=Cc2ccccc2)OC2OC3(C)CCC4C(C)CCC1C24OO3` (stereo not drawn) [Z-VII-C, 10-(Styryl)anhydroartemisinin], for which the IC50 in series [1] (setting [6]) is 8.1 nM.
On the same count and under the same terms, for `CC1=C(C=Cc2ccc([N+](=O)[O-])cc2)OC2OC3(C)CCC4C(C)CCC1C24OO3` (stereo not drawn) [Z-VII-d, 10-(p-Nitrostyryl)anhydroartemisinin] the value was 10 nM.
Take `CCO[C@H]1O[C@@H]2O[C@@]3(C)CC[C@H]4[C@H](C)CC[C@@H]([C@H]1C)[C@@]24OO3` [arteether]: the “conversion into dihydroartemisinin (II-1)” value in series [4] is reported as “rapidly converted”.
Regarding `C=C1/C(=C\C=C2/CCC[C@]3(C)[C@@H]([C@H](C)CCCC(C)(C)O)CC[C@@H]23)C[C@@H](O)C[C@@H]1O` [calcitriol, 1α, 25-dihydroxyvitamin D3, reference compound], the “viability of treated cells by trypan blue exclusion” value in series [5] is given as “identical to control cells”.

The values are drawn from patent US20020055528A1, “Artemisinin analogs having antimalarial, antiproliferative, and antitumor activities and chemoselective methods of making the same” (priority 1999, published 2002).
